Data set [1] has as its target T1, NCX1 (Canis lupus familiaris, UniProt P23685).
T1 construct: expressed in transfected cells
Description: 45Ca2+ radiotracer fluxes (efflux/influx) in BHK-NCX1 cells. Format: cell-based. On the procedure: (§1) The activity of NCX was established by means of three different subclones of baby hamsted kidney (BHK) cells that were stably transfected with one of each NCX isoforms, named BHK-NCX1, BHK-NCX2 and BHK-NCX3. These cell lines were grown on plastic dishes in a mix of DMEM and Ham's F12 media (1:1) (Gibco, Invitrogen, MI, Italy) supplemented with 5% fetal bovine serum, 100 U/ml penicillin, and 100 µg/ml streptomycin (Sigma, St. Louis, Missouri, USA). Cells were cultured in a humidified 5% CO2 atmosphere and at the temperature of 37°C.
(§2) The activity of the Na^+/Ca^2+ exchanger was measured by means of ^45Ca^2+ radiotracer variations in the cytoplasm of cells exposed to a protocol stimulating the forward or the reverse mode of the antiporter. The BHK cells expressing each mutated or non-mutated NCX isoform were cultured in 12-well dishes and incubated in 145 mM NaCl for 10 minutes and then in a medium containing only 145 mM N-Methyl D-glucamine (NMDG) and 10 µM of ^45Ca^2+. This rapid substitution of the medium from a high level of Na^+ to another one without Na^+ allow the ^45Ca^2+ influx (reverse mode). Before the medium substitution cells was incubated with 1 mM ouabain, a Na^+/K^+ pump inhibitor, and 10 µM monensin, a ionophore for extracellular Na^+. After 30 seconds incubation, cells were washed with an ice-cold solution containing 2 mM La^3+ to stop ^45Ca^2+ uptake. The medium was removed and cells were subsequently lysed with 0.1 N NaOH and aliquots were taken to determine radioactivity and protein content.
(§3) In order to measure NCX activity in the forward mode, cells were firstly loaded with ^45Ca^2+ and subsequently exposed to a chemical protocol to stimulate the efflux of the radiotracer in the extracellular medium. In particular, cells were loaded with ^45Ca^2+ by using a solution containing 1 µM ionomycin, 145 mM Na^+ and ^45Ca^2+. Next, cells were exposed to a Ca^2+-free solution containing 2 mM EGTA. One µM thapsigargin, a Ca^2+-ATPase inhibitor, was present in both solutions in order to prevent ^45Ca^2+ influx in intracellular organelles. After 60 second, cells were lysed with […] NaOH and aliquots were taken to determine cytoplasmatic radioactivity.
(§4) Cells were incubated for 30 minutes with different neurounina-1 concentrations.

The target in the next data set is T2, NCX2 (Rattus norvegicus, UniProt P48768).
T2 construct: expressed in transfected cells
T2 sequence (P48768 21-921): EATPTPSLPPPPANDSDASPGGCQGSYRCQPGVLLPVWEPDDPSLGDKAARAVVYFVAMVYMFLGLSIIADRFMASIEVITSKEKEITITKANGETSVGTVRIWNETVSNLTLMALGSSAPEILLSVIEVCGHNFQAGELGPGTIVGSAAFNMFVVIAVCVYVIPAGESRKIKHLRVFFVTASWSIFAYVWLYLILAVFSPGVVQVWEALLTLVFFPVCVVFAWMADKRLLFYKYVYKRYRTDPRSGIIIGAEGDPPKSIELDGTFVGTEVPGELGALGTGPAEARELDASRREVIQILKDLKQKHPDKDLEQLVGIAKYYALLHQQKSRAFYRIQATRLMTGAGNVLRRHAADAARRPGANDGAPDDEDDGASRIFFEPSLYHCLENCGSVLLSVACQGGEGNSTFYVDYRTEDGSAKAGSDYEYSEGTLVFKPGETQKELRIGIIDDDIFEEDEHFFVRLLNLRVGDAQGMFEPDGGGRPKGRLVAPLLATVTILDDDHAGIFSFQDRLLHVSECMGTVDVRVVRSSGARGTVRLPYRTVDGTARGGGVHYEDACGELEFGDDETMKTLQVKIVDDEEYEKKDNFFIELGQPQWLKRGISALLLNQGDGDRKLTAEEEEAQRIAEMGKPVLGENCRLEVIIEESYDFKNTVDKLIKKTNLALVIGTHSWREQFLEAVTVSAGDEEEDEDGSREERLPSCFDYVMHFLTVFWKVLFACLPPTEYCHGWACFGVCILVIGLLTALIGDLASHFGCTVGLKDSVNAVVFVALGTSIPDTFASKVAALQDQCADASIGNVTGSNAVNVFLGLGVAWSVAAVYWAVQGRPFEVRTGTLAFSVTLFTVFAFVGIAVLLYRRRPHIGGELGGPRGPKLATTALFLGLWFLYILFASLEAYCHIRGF
Description: 45Ca2+ radiotracer fluxes (efflux/influx) in BHK-NCX2 cells. It is filed as cell-based. On the procedure: as §1, §2, §3, §4

In the next data set the target is T3, NCX3 (Rattus norvegicus, UniProt P70549).
T3 construct: expressed in transfected cells
T3 sequence (P70549 31-927): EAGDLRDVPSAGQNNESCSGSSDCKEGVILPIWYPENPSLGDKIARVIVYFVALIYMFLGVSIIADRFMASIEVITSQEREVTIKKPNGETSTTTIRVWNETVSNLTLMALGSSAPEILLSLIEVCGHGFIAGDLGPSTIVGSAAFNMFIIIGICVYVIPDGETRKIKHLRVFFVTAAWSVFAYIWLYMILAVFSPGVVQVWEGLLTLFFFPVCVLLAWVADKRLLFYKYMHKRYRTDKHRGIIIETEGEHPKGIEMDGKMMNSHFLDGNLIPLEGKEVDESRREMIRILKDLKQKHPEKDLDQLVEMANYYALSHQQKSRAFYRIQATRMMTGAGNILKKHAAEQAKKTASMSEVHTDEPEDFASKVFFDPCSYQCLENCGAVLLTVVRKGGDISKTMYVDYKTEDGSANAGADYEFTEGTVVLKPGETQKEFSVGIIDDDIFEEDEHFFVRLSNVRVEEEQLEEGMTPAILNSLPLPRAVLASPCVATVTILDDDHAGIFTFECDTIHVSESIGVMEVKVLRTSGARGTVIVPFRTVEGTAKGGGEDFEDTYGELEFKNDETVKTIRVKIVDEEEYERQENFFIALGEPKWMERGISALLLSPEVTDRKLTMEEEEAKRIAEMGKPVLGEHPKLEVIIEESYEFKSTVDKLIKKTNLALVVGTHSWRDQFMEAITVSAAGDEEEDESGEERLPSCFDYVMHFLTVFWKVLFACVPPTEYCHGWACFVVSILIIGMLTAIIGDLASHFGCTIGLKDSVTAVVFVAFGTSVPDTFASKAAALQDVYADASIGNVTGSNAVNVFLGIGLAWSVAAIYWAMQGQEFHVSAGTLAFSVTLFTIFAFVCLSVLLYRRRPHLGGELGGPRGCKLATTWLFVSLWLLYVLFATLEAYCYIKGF
Nature of the data set: 45Ca2+ radiotracer fluxes (efflux/influx) in BHK-NCX3 cells. Format: cell-based. On the procedure: as §1, §2
In order to measure NCX activity in the forward mode, cells were firstly loaded with ^45Ca^2+ and subsequently exposed to a chemical protocol to stimulate the efflux of the radiotracer in the extracellular medium. In particular, cells were loaded with ^45Ca^2+ by using a solution containing 1 µM ionomycin, 145 mM Na^+ and ^45Ca^2+. Next, cells were exposed to a Ca^2+-free solution containing 2 mM EGTA. […] After 60 second, cells were lysed with […] NaOH and aliquots were taken to determine cytoplasmatic radioactivity. […]

Data set [2] has as its target T1, NCX1. Description: Patch-clamp electrophysiology (whole-cell NCX currents), BHK-NCX1 cells. Format: cell-based. Conditions: 10 nM, 10 minutes. On the procedure: To further investigate the effects of this compound on the Na^+/Ca^2+ exchanger activity, we performed electrophysiological experiments on BHK cells stably transfected with each of NCX isoforms (named BHK-NCX1, BHK-NCX2 and BHK-NCX3).
as §1
NCX currents (/NCX) was recorded from BHK wild-type and BHK stably transfected cells with NCX1, NCX2, and NCX3 and all each mutated of single isoforrms by patch-clamp technique in whole-cell configuration. […] Data were acquired and analyzed by use of pClamp software (version 9.0, Molecular Devices). In brief, /NCX was recorded starting from a holding potential of -60 mV up to a short-step depolarization at +60 mV (60 ms) (He et al., 2003; Xiao et al., 2004). […] The current recorded in the descending portion of the ramp (from +60 to -120 mV) was used to plot the current-voltage (I-V) relation curve. […]
(In patch-clamp work, channel activity is measured electrically.)

Another data set addresses T4, NCX1Δf (Canis lupus familiaris, UniProt P23685, DEL273-712).
T4 construct: expressed in transfected cells
Description: Na+-dependent Ca2+ influx assay on BHK cells with f-loop deletion mutant. It is filed as cell-based. Conditions: 10 nM; compared to wild-type NCX3 exposed to the same treatment. On the procedure:
In order to establish the molecular determinants of the effect of neurounina-1 on NCX1, we firstly performed a Na^+-dependent Ca^2+ influx assay on BHK cells stably transfected with a mutated NCX1 exchanger (NCX1Δf), in which a large portion of the f loop, region 241-680, was removed by deletion mutagenesis.
All experiments aimed to identify the binding site of neurounina-1 were performed on BHK cells stably transfected with a single NCX chimera or mutant.
as §2, with “After 30 seconds incubation, cells were washed with an ice-cold solution containing 2 mM La^3+ to stop ^45Ca^2+ uptake.” left out

A further data set relates to BHK cells. Description: Mitochondrial dehydrogenase activity (MTT). It is filed as cell-based, hamster.
Where [3] appears, read: 45Ca2+ radiotracer, forward mode.
Setting [4] is: 45Ca2+ radiotracer, reverse mode.
Where [5] appears, read: forward and reverse mode, patch clamp, Fura-2 microfluorimetry and 45Ca2+ fluxes (summary).

Entries after “also recorded” stand apart in the source; their conditions may differ.

One may read the EC50 as the concentration at which the effect is half-maximal. Low readings indicate greater potency, high ones weaker potency.

T1 sequence (P23685 33-970): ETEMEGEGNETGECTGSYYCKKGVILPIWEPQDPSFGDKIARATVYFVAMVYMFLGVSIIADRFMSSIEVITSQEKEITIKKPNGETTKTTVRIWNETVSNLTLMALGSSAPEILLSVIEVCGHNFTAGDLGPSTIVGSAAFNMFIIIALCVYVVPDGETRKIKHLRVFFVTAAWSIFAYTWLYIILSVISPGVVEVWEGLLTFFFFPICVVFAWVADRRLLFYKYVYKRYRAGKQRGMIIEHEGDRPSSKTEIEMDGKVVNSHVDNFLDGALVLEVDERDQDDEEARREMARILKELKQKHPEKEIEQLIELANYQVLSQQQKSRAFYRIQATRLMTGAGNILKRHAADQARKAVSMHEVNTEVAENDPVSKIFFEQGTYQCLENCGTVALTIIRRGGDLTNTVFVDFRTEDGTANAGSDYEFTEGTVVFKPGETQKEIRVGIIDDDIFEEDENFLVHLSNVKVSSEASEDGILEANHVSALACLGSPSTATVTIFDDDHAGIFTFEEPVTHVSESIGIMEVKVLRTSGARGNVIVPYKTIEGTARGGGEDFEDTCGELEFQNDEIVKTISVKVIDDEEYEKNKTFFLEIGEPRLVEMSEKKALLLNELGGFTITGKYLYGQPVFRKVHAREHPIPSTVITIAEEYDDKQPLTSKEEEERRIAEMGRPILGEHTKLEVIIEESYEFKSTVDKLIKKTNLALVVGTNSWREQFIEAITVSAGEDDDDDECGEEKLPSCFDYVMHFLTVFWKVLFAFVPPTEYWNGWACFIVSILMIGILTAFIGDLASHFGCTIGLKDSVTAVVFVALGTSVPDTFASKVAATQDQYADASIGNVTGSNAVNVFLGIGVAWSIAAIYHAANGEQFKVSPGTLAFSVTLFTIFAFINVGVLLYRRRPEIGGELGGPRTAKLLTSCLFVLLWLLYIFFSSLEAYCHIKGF
T4 sequence (P23685 with tags, fused parts or gaps DEL273-712): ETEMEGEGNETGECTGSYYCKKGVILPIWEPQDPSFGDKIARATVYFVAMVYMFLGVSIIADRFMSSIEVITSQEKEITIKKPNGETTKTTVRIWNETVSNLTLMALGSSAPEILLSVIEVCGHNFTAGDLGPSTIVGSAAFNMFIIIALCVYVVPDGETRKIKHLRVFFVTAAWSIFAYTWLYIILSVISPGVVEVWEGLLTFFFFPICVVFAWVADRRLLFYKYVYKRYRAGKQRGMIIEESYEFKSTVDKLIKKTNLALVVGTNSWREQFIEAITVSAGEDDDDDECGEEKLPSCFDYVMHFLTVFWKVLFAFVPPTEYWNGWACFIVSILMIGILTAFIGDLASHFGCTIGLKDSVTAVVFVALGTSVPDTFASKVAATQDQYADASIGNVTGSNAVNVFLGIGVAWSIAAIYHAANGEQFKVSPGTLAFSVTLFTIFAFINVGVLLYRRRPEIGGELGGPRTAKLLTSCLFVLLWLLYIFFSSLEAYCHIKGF

Turning to `O=C1CN=C(c2ccccc2)c2cc([N+](=O)[O-])ccc2N1CN1CCCC1` [neurounina-1, 7-nitro-5-phenyl-1-(pyrrolidin-1-ylmethyl)-1H-benzo[e][1,4]diazepin-2(3H)-one], the “increase of forward mode of NCX1 activity” value at NCX1 [1] (setting [3]) amounted to 70%. In addition, the “increase of reverse mode NCX1 activity” value at NCX1 [1] (setting [4]) is reported as 40%. Further, the half-maximal effective concentration (EC50) at NCX1 [1] (EC50 NCX1, reverse mode, 45Ca2+ radiotracer, reverse mode) is 1.1 nM; on NCX1 [1] (EC50 for NCX1, forward mode, 45Ca2+ radiotracer, forward mode) it was 1.4 nM; at NCX1 [1] (EC50 su NCX1, from the functional assays (summary)) it was 1 to 2 nM; at NCX2 (EC50 NCX2, reverse mode, 45Ca2+ radiotracer, reverse mode), 2.7 nM; on NCX2 (EC50 for NCX2, forward mode, 45Ca2+ radiotracer, forward mode) it was 1.7 nM; on NCX2 (EC50 su NCX2, from the functional assays (summary)) it was 1 to 2 nM. The NCX1 activity result on NCX1 [1] (setting [5]) is “increases, in a dose-dependent manner”. In addition, the “increase of forward mode of NCX2 activity” value at NCX2 (setting [3]) came out at 30%. Besides, the “increase of reverse mode NCX2 activity” value on NCX2 (setting [4]) stood at 40%. The NCX2 activity entry at NCX2 (setting [5]) is given as “increases, in a dose-dependent manner”. Also, the “activity of NCX3, forward mode” value at NCX3 (setting [3]) was “did not significantly affect”. For the same compound, the “activity of NCX3, reverse mode” value on NCX3 (setting [4]) is recorded as “did not affect”. The NCX3 activity entry on NCX3 (setting [5]) is given as “did not exert any effect”. Further, the “increased forward and reverse activity of NCX1” value at NCX1 [2] is listed as 60%. Further, the “activity of the mutant NCX1Δf” value at NCX1Δf is “significantly increased”. Further, in the data set on BHK cells (10 µM versus EC50), the “non-toxic concentration relative to EC50” value is approximately 10.000 times. Also, the mitochondrial activity entry in the data set on BHK cells (10 µM, 24 hours, BHK cells) was “did not show any toxic effect; also recorded: did not affect”.

The record behind these values is patent EP2646421B1, “7-NITRO-5-PHENYL-1-(PYRROLIDIN-1-YLMETHYL)-1H-BENZO[E][1,4]DIAZEPIN-2(3H)-ONE AND OTHER BENZODIAZEPINE DERIVATIVES” (Pignataro, Giuseppe, priority 2010, dated 2012).
